# PMC4527605 (ACS infectious diseases, 2015)
# Columns and labels:
# M. tuberculosis H37Rv [1] = assay: M. tuberculosis H37Rv growth inhibition; format: cell-based, Mycobacterium tuberculosis; details: for MIC: Mycobacterium tuberculosis, H37RV, read-out: Mt = M. tuberculosis H37Rv, MIC, estimated visually from 2x serial dilutions
# M. smegmatis = M. smegmatis growth inhibition; format: cell-based, Mycobacterium smegmatis; details: Mycolicibacterium smegmatis, read-out: Ms = M. smegmatis, IC50
# M. tuberculosis Erdman = M. tuberculosis Erdman growth inhibition; format: cell-based, Mycobacterium tuberculosis; details: estimated visually from 2x serial dilutions
# B. subtilis = B. subtilis growth inhibition; format: cell-based; details: Bacillus subtilis, read-out: Bs = B. subtilis, IC50
# E. coli = E. coli growth inhibition; format: cell-based; details: Escherichia coli, read-out: Ec = E. coli, IC50
# S. cerevisiae = S. cerevisiae growth inhibition; format: cell-based; details: Saccharomyces cerevisiae, read-out: Sc = S. cerevisiae, IC50
# [2] = HEK293T cell growth inhibition; format: cell-based; details: human, HEK293T cells
# [3] = HepG2 cell growth inhibition; format: cell-based; details: human, HepG2 cells
# M. tuberculosis H37Rv [4] = details: cited from earlier work
# Trypanosoma brucei = assay: T. brucei 427
# [5] = test system: inner mitochondrial membrane potential, Δψ; assay: Mitochondrial membrane potential; format: cell-based, Trypanosoma brucei; details: PCF, oligomycin 2 μg/ml, Figure 4C
SMILES,MIC (M. tuberculosis H37Rv [1]),IC50 (M. smegmatis),"Mt = M. tuberculosis H37Rv, MIC (M. tuberculosis H37Rv [1]; estimated visually from 2x serial dilutions)","MtE = M. tuberculosis Erdman, MIC (M. tuberculosis Erdman)","MtE = M. tuberculosis Erdman, MIC (M. tuberculosis Erdman; listed as SQ109)",IC50 (B. subtilis),IC50 (E. coli),IC50 (S. cerevisiae),CC50 [2],CC50 [3],MIC against M. tuberculosis (previous work) (M. tuberculosis H37Rv [4]),"IC50 (Trypanosoma brucei; Trypanosoma brucei, 72 h, read-out: Tb = Trypanosoma brucei, IC50)",SI = CC50(HEK293T)/IC50(Tb) (Trypanosoma brucei; selectivity index HEK293T vs T. brucei),SI = CC50(HepG2)/IC50(Tb) (Trypanosoma brucei; selectivity index HepG2 vs T. brucei),effect on ADP phosphorylation by T. brucei mitochondria (Δψ decrease after ADP) [5]
"CC[C@@H](CO)NCCN[C@@H](CC)CO [compound 1, ethambutol]",2 µg/mL,1 µg/mL,,,,,,,,,,,,,
"CC(C)=CCC/C(C)=C/CNCCNC1C2CC3CC(C2)CC1C3 (centres unmarked) [compound 2, SQ109]",0.1 to 0.5 µg/mL,3.1 µg/mL,0.15 µg/mL,0.50 µg/mL,0.1 to 0.5 µg/mL,7.6 µg/mL,2.8 µg/mL,1.1 µg/mL,1.9 µg/mL,1.2 µg/mL,0.15 µg/mL,0.078 ± 0.001 µg/mL,24,15,
CC[C@H]1/C=C/C=C/C[C@@H](C)[C@H](O)[C@@](C)(O)C(=O)[C@@H](C)[C@H](O)[C@@H](C)C(=O)[C@@H](C)[C@H](O)[C@@H](C)/C=C/C(=O)O[C@@H]2[C@H](C)[C@H](CC1)O[C@]1(CC[C@H](C)[C@H](C[C@@H](C)O)O1)[C@H]2C [oligomycin],,,,,,,,,,,,,,,inhibited
